Several values for one entry are separate records, joined by “and”; a condition that tells them apart may be missing. Equal values may be shown once. Where a SMILES comes first, the peptide text is derived from it. Bridges are numbered along the chain shown (N, C = ends). The star is where a group is joined. DOTA = O=C(O)CN1CCN(CC(=O)O)CCN(CC(=O)*)CCN(CC(=O)O)CC1
Target: T1, ADAMTS4 in the aneurysmal aortic wall of ApoE−/− mice (Mus musculus, UniProt Q8BNJ2)
T1 construct: from tissue
T1 sequence (Q8BNJ2 209-833): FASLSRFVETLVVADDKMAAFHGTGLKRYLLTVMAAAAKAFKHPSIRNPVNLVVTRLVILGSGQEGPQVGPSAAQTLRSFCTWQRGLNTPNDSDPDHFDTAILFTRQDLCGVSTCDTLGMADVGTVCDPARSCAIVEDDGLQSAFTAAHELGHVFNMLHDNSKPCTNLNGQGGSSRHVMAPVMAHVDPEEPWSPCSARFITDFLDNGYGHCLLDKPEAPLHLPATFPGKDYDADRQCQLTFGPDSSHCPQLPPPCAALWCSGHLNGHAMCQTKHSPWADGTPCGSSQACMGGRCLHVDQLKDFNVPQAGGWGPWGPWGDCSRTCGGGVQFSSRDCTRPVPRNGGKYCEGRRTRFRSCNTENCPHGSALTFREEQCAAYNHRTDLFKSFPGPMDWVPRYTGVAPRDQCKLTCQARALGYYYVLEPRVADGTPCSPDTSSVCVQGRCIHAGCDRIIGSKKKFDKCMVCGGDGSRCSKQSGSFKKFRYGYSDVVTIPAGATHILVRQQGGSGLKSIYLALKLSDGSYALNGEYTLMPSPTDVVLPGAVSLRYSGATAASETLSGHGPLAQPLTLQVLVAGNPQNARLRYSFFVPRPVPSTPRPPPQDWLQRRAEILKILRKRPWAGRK
Assay: In vivo MRI, longitudinal study (1 week after aneurysm induction)
Details: longitudinal group, 1 week after AngII, n = 12; one line per mouse
Procedure: The longitudinal study includes an MR imaging session 1 week after aneurysm induction (n = 12) with the administration of the ADAMTS4-specific probe. Animals were then followed up for 4 weeks to evaluate the potential of the probes for the prediction of aneurysm progression. After 4 weeks, mice were sacrificed, and aortas excised.
MR imaging was performed using a clinical 3 T Siemens system (Biograph, Siemens Healthcare Solutions, Erlangen, Germany). The system was equipped with a 4-channel receive-coil array for mouse body applications (Mouse Heart Array, P-H04LE-030, Version 1, Rapid Biomedical, Germany). Following anesthesia injection, the animals were positioned in a prone position, and body temperature (37 °C) was monitored using an MR-compatible heating system (Model 1025, SA Instruments Inc, Stony Brook, NY) to avoid rapid cooling. […]
Analysis of resulting MR images was performed using OsiriX (version 7.1, OsiriX Foundation, Bernex, Switzerland). […] In order to assess the signal intensities, regions of interest (ROIs) were measured as areas of signal enhancement, which were co-localized with areas of aneurysmal-aortic tissue. For these areas, the CNR was calculated using the following formula: CNR = (Combined vessel-wall and aneurysmal-aortic-tissue-signal − blood-signal)/standard-deviation-signal (noise). […]

SMILES: N=C(N)NCCC[C@@H]1NC(=O)[C@H](CCCNC(=N)N)NC(=O)[C@H](CO)NC(=O)[C@@H](N)CSSC[C@@H](C(=O)N[C@@H](CO)C(=O)NCC(=O)NCC(=O)N[C@@H](CO)C(=O)NCC(=O)NCC(=O)N[C@@H](CCCCNC(=O)CN2CCN(CC(=O)O)CCN(CC(=O)O)CCN(CC(=O)O)CC2)C(=O)NCC(N)=O)NC(=O)CNC1=O (Gd complex, metal not drawn) [ADAMTS4-specific probe] (H-CSRRGCSGGSGGK(DOTA)G-NH2; disulfide 1-6)
- CNR post administration, individual animals: 10.17 and 7.35 and 11.97 and 12.63 and 7.15 and 7.46 and 7.27 and 8.85 and 11.26 and 15.46 and 7.57 and 11.23

Source: publication PMC9126943, “ADAMTS4-specific MR probe to assess aortic aneurysms in vivo using synthetic peptide libraries” (Nature Communications, 2022)
